Results reported in patent publication US7815945B2, “Medicament for the prevention and treatment of influenza” (priority 2005, dated 2010).

Tested on: A549 cells
Assay: Apoptotic caspase activation (Western blot for PARP cleavage)
Details: 48 h, extract 25 μg/ml and 50 μg/ml, staurosporine as positive control, FIG. 3

CN[C@@H]1C[C@H]2O[C@@](C)([C@@H]1OC)n1c3ccccc3c3c4c(c5c6ccccc6n2c5c31)C(=O)NC4 [staurosporine]
cleavage of the caspase substrate PARP (caspase activity): efficient cleavage of the caspase substrate
